# From ChEMBL document CHEMBL1201862, “PubChem BioAssay data set” (2004)
# Activity calls are given as the source filed them.
# Assays:
# [1] = target: Mitogen-activated protein kinase 13 (Homo sapiens, UniProt O15264); type: functional
# [2] = target: Mitogen-activated protein kinase 12 (Homo sapiens, UniProt P53778); type: functional;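 also: measured as one member of a kinome-wide kinase profiling panel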
# [3] = target: Homeodomain-interacting protein kinase 4 (Homo sapiens, UniProt Q8NE63); type: functional
# [4] = target: Glycogen synthase kinase-3 alpha (Homo sapiens, UniProt P49840); type: functional;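 also: GSK3A result taken from a broad kinome-wide kinase panel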
# [5] = target: Casein kinase I isoform alpha (Homo sapiens, UniProt P48729); type: functional
# [6] = target: Dual specificity tyrosine-phosphorylation-regulated kinase 4 (Homo sapiens, UniProt Q9NR20); type: functional
# [7] = target: Receptor-type tyrosine-protein kinase FLT3 (Homo sapiens, UniProt P36888); type: functional;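 also: FLT3 was tested as one member of a kinome-wide kinase panel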
# [8] = target: Serine/threonine-protein kinase PLK4 (Homo sapiens, UniProt O00444); type: functional;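 also: PLK4 measured as one member of a kinome-wide kinase profiling panel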
# [9] = target: Macrophage colony-stimulating factor 1 receptor (Homo sapiens, UniProt P07333); type: functional;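 also: value comes from the Navigating the Kinome screening panel, CSF1R member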
# [10] = target: Casein kinase I isoform gamma-1 (Homo sapiens, UniProt Q9HCP0); type: functional;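 also: measured as the CSNK1G1 member of a kinome profiling panel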
# [11] = target: MAP kinase-interacting serine/threonine-protein kinase 2 (Homo sapiens, UniProt Q9HBH9); type: functional
# [12] = target: Insulin-like growth factor 1 receptor (Homo sapiens, UniProt P08069); test: Navigating the Kinome. Panel member name: IGF1R; type: functional
# [13] = target: Glycogen synthase kinase-3 beta (Homo sapiens, UniProt P49841); type: functional;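 also: value comes from a broad kinome profiling panel, with GSK3B as the panel member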
# [14] = target: Maternal embryonic leucine zipper kinase (Homo sapiens, UniProt Q14680); type: functional
# [15] = target: Serine/threonine-protein kinase DCLK1 (Homo sapiens, UniProt O15075); type: functional;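 also: affinity for DCLK1 (listed as DCAMKL1) measured as one member of a kinome-wide kinase profiling panel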
# [16] = target: Tyrosine-protein kinase SYK (Homo sapiens, UniProt P43405); type: functional
# [17] = target: Serine/threonine-protein kinase Chk1 (Homo sapiens, UniProt O14757); type: functional;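 also: measured as one member of a kinome-wide kinase profiling panel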
# [18] = target: Ribosomal protein S6 kinase alpha-3 (Homo sapiens, UniProt P51812); type: functional;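 also: measured within a kinome-wide profiling panel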
# [19] = target: Serine/threonine-protein kinase pim-3 (Homo sapiens, UniProt Q86V86); type: functional;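 also: value obtained as one member of a broad kinase panel profiling effort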
# Genome polyprotein = Genome polyprotein (dengue virus type 2, UniProt P29990); test: flavivirus cap methylation enzyme inhibition – biochemical, confirmation dose response, primary screen (AID 588689); type: functional
# [20] = target: T1, Histone-lysine N-methyltransferase NSD2 (Homo sapiens, UniProt O96028); type: biochemical
# T1 sequence (O96028 whole entry): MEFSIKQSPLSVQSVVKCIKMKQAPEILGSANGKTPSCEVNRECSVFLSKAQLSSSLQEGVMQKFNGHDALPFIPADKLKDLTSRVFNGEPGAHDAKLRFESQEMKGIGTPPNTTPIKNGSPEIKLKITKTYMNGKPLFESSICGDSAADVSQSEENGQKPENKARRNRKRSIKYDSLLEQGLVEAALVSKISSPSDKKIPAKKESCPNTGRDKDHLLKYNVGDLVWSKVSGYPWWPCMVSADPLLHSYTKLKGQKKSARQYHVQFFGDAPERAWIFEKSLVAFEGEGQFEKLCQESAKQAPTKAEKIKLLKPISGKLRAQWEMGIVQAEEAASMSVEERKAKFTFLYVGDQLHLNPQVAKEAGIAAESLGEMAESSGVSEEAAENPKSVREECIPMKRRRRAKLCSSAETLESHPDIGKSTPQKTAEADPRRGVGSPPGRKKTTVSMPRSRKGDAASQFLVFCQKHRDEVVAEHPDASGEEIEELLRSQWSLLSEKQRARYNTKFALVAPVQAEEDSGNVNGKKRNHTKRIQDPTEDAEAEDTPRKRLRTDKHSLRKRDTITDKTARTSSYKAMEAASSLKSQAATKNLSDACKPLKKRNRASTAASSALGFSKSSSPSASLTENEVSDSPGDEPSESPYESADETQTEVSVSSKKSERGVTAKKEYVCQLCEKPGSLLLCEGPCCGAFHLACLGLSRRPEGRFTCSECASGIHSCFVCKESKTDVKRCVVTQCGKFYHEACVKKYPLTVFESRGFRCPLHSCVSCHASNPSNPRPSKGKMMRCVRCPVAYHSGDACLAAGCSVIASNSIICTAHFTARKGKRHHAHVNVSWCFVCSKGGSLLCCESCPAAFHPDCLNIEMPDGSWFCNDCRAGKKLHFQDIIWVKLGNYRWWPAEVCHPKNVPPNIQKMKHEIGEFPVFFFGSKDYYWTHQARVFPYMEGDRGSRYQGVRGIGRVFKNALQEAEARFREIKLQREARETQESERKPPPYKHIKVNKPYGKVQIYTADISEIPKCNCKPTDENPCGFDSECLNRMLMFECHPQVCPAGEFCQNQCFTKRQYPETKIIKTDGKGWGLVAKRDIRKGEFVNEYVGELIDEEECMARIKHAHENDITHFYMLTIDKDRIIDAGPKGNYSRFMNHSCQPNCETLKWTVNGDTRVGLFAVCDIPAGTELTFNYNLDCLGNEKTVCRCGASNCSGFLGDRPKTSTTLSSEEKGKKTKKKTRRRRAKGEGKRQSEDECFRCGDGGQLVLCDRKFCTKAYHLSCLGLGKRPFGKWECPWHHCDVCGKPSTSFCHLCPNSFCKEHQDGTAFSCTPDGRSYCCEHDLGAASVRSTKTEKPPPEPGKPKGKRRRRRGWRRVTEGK
# Chain of Glycogen synthase kinase-3 beta (P49841 whole entry): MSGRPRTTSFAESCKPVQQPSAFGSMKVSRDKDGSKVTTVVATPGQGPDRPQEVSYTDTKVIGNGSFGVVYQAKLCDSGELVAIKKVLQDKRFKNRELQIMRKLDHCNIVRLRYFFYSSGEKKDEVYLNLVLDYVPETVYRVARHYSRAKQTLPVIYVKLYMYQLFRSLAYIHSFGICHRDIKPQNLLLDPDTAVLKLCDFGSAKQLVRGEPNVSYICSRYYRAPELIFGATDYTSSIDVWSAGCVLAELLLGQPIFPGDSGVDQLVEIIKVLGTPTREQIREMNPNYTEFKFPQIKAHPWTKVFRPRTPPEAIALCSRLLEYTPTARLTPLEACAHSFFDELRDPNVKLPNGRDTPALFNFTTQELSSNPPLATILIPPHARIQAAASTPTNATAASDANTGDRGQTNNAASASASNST
# Chain of Ribosomal protein S6 kinase alpha-3 (P51812 whole entry): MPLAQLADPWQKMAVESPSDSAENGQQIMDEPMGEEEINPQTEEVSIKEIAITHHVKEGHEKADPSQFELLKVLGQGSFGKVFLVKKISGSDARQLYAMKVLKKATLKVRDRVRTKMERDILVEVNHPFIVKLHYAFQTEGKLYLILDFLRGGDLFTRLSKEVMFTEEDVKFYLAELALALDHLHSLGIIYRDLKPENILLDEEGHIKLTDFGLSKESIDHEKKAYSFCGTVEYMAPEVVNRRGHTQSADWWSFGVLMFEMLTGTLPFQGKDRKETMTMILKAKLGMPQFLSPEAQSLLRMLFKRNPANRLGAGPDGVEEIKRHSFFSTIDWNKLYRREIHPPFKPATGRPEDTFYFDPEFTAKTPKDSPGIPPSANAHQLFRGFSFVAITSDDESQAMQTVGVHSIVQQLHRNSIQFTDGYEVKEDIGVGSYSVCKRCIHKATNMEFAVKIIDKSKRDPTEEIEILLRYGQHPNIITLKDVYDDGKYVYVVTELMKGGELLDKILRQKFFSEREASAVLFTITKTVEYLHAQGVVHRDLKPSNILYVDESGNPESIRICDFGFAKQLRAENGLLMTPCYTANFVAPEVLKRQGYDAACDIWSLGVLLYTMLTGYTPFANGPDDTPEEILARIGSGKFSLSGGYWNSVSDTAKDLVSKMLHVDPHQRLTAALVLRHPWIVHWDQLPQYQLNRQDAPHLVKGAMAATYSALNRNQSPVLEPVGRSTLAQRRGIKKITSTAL
# Chain of Serine/threonine-protein kinase Chk1 (O14757 whole entry): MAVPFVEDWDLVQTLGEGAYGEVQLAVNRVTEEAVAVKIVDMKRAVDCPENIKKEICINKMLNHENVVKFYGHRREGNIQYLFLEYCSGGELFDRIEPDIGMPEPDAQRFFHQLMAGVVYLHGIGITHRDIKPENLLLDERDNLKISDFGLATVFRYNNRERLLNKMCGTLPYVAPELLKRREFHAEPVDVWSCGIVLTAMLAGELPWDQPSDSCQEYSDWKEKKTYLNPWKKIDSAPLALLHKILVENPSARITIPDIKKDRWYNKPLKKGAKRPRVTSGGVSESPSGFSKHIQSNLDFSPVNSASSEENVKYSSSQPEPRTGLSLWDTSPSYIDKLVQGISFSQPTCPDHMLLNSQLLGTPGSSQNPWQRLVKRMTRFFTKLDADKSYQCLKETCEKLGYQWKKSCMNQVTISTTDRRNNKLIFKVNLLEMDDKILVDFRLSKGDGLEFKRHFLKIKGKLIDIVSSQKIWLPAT
# Chain of Serine/threonine-protein kinase PLK4 (O00444 whole entry): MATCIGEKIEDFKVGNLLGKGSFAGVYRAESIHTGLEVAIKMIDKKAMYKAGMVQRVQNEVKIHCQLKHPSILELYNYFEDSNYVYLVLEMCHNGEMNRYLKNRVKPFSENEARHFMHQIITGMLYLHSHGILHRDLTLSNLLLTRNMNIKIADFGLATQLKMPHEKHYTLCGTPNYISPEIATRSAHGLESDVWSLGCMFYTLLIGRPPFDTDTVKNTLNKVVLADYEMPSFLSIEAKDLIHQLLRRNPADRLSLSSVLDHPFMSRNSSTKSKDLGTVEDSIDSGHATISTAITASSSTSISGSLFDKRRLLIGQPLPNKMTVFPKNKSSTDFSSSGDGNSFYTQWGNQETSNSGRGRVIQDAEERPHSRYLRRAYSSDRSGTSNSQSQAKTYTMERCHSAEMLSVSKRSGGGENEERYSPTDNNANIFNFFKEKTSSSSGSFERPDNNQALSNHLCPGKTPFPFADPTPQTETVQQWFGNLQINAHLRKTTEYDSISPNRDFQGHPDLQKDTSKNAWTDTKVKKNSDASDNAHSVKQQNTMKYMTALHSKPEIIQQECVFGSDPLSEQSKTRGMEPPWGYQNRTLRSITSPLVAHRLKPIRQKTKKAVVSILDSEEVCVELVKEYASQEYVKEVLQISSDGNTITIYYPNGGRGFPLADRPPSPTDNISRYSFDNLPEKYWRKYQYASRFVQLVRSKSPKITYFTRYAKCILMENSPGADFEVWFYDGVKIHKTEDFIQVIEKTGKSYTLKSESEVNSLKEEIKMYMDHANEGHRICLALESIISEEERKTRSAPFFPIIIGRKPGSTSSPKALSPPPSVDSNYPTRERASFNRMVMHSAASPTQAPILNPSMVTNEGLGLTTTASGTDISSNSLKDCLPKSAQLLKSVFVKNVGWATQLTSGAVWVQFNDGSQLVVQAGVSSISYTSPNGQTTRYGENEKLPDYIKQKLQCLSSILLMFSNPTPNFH
# Chain of Mitogen-activated protein kinase 12 (P53778 whole entry): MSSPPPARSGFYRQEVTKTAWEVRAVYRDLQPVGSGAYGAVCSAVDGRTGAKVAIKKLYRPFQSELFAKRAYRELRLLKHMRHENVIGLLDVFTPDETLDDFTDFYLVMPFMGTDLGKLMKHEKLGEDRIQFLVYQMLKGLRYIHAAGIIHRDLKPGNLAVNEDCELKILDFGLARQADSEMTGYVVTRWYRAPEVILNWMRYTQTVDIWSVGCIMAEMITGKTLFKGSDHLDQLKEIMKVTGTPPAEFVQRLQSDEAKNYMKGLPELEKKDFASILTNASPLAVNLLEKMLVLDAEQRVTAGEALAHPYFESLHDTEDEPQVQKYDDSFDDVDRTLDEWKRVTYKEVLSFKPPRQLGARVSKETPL
# Chain of Glycogen synthase kinase-3 alpha (P49840 whole entry, canonical isoform): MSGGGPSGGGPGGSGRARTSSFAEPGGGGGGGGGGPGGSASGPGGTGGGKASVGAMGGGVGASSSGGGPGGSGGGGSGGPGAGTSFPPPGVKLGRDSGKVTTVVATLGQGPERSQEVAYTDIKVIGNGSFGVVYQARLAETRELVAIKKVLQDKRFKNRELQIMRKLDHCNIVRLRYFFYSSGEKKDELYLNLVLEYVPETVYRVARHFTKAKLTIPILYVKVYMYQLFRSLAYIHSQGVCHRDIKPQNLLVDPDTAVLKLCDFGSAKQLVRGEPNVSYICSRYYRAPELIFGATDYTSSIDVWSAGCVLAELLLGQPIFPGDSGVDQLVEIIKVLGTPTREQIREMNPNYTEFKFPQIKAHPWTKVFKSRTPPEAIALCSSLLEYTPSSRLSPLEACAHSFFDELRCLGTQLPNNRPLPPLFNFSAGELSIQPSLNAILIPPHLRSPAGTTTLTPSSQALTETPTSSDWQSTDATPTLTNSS
# Chain of Genome polyprotein (P29990 2492-3391 limits assumed): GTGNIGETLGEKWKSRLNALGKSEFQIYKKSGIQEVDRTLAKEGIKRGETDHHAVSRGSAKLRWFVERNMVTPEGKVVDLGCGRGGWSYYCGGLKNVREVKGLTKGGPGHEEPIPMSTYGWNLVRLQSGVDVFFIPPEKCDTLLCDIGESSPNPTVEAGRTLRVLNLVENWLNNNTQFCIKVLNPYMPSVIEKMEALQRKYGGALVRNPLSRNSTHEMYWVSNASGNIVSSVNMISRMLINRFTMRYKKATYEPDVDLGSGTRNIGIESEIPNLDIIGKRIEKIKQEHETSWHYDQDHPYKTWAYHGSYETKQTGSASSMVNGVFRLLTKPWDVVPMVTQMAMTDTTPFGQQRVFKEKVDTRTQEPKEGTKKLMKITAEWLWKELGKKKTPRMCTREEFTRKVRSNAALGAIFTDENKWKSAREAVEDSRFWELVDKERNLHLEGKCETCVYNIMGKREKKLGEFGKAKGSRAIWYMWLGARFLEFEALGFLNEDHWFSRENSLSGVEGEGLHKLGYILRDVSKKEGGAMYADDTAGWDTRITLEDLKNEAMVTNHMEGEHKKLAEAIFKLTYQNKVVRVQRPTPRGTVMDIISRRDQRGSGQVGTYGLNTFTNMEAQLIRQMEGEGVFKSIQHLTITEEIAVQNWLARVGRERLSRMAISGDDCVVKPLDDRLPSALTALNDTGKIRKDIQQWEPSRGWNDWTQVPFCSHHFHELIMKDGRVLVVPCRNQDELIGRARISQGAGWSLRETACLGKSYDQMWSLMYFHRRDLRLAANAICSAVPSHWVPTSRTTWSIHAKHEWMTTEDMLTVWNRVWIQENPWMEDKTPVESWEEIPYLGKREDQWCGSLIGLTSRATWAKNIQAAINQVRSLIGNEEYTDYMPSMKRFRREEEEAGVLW
# Chain of Casein kinase I isoform alpha (P48729 whole entry, canonical isoform): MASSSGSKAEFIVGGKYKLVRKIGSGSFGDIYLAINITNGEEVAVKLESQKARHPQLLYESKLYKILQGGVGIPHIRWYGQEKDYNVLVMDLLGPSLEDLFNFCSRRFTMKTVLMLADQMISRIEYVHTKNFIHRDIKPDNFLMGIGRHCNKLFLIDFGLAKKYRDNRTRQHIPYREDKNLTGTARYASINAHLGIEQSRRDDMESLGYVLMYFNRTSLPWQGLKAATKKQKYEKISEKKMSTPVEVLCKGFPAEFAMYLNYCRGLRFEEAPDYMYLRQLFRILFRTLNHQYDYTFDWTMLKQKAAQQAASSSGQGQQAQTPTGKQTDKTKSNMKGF
compound,measurement,setting,value
Cn1cncc1C(OCc1c(-c2ccc(OC(F)(F)F)cc2)cc(C#N)c(=O)n1C)c1ccc(C#N)cc1 (stereo unspecified),Ki,[1],> 7.94 µM (inactive)
same,Ki,[2],> 6.31 µM (inactive)
same,Ki,[3],> 7.94 µM (inactive)
same,Ki,[4],> 7.94 µM (inactive)
same,Ki,[5],> 6.31 µM (inactive)
same,Ki,[6],> 7.94 µM (inactive)
same,Ki,[7],0.631 µM (active)
same,Ki,[8],> 3.98 µM (inactive)
same,Ki,[9],> 2.51 µM (inactive)
same,Ki,[10],> 6.31 µM (inactive)
same,Ki,[11],> 10 µM (inactive)
same,Ki,[12],> 2 µM (inactive)
same,Ki,[13],2.51 µM (active)
same,Ki,[14],> 1.58 µM (inactive)
same,Ki,[15],> 10 µM (inactive)
same,Ki,[16],> 1.58 µM (inactive)
same,Ki,[17],> 7.94 µM (inactive)
same,Ki,[18],> 7.94 µM (inactive)
same,Ki,[19],> 7.94 µM (inactive)
CCc1ccc(S(=O)(=O)/N=C2\C=C(NS(=O)(=O)c3ccccc3)C(=O)c3ccccc32)cc1,IC50,Genome polyprotein,22.9 µM (active)
same,AC50,[20],5.4 µM (active)
